Each compound was assayed against T1, human PAH with the R408W mutation (Homo sapiens, UniProt P00439, R408W) (assay: Cell Based Phenylalanine Flux Assay). Conditions: A375 cells expressing R408W PAH; 24 hrs with compound, then 20 µM sepiapterin and 800 µM 13C9,15N-Phenylalanine for 4 hours; 13C-Tyrosine by LC-MS; average where tested multiple times; read-out: AC50.
T1 construct: expressed in transfected cells
T1 sequence (P00439 1-452 R408W): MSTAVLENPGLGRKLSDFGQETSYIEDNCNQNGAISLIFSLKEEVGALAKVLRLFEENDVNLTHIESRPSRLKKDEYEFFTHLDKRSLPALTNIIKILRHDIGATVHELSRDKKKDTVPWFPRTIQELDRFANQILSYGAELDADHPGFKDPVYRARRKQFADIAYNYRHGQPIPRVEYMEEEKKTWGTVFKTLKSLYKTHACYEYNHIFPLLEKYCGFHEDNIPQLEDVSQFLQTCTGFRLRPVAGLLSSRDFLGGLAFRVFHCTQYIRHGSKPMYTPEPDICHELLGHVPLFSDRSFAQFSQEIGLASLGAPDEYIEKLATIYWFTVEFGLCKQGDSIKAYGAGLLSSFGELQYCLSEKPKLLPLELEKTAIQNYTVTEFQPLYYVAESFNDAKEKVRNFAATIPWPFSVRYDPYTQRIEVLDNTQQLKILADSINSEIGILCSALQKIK
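Further: after compound treatment, cells received sepiapterin plus isotope-labelled Phenylalanine for 4 hours, then labelled Tyrosine in the medium was quantified, 10-point 2-fold dilution series run in duplicate.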

Row | SMILES | AC50
1 | O=C(c1nnc(C2CC(F)(F)C2)o1)N1CCc2[nH]cnc2C1c1cc2cccc(Cl)n2n1 (centres unmarked) [listing 1 of 2 here] | > 5000 nM
2 | O=C(c1nnc(C2CC(F)(F)C2)o1)N1CCc2[nH]cnc2C1c1cc2cccc(Cl)n2n1 (centres unmarked) [listing 2 of 2 here] | 1000 to 5000 nM
3 | COc1cccn2nc(C3c4nc[nH]c4CCN3C(=O)c3cnn4cc(N5CCOCC5)ccc34)cc12 (centres unmarked) | > 5000 nM
4 | Cc1cccn2nc(C3c4nc[nH]c4CCN3C(=O)c3cnn4cc(CCN(C)C)ccc34)cc12 (centres unmarked) | 1000 to 5000 nM

Further lines, results first:

Row | AC50 | SMILES
5 | > 5000 nM | Cc1ccn2nc(C3c4nc[nH]c4CCN3C(=O)c3nnc(C(C)(C)F)o3)cc2c1 (centres unmarked)
6 | 1000 to 5000 nM | CC(C)(C)c1nnc(N2CCc3[nH]cnc3C2c2cc3c(C(F)(F)F)cccn3n2)o1 (centres unmarked)
7 | 1000 to 5000 nM | Cc1cccn2nc(C3c4nc[nH]c4CCN3C(=O)c3ocnc3C(F)F)cc12 (centres unmarked)
8 | 1000 to 5000 nM | Fc1ncccc1-c1nnc(N2CCc3[nH]cnc3C2c2cc3c(C(F)(F)F)cccn3n2)o1 (centres unmarked)
9 | 1000 to 5000 nM | Cc1cccn2nc([C@@H]3c4nc[nH]c4CCN3c3nnc(C4CC(F)(F)C4)o3)cc12 (single isomer, unassigned)
10 | 1000 to 5000 nM | Clc1cccc2cc(C3c4nc[nH]c4CCN3c3nnc(C4CC4)o3)nn12 (centres unmarked)

Same assay, conditions: A375 cells expressing human PAH R408W; 24 hrs compound incubation; 13C-Tyrosine by LC-MS; average where tested multiple times; read-out: AC50

Row | SMILES | AC50
11 | Cc1cccn2nc([C@H]3c4nc[nH]c4CCN3C(=O)c3nnc(-c4ccn(C)n4)s3)cc12 [Example 1999, (R)-(5-(1-methyl-1H-pyrazol-3-yl)-1,3,4-thiadiazol-2-yl)(4-(4-methylpyrazolo[1,5-a]pyridin-2-yl)-1,4,6,7-tetrahydro-5H-imidazo[4,5-c]pyridin-5-yl)methanone] | > 5000 nM
12 | Cn1cc(-c2nnc(C(=O)N3CCc4[nH]cnc4[C@H]3c3cc4ccc(Br)cn4n3)o2)cn1 [Example 2488, (S)-(4-(6-bromopyrazolo[1,5-a]pyridin-2-yl)-1,4,6,7-tetrahydro-5H-imidazo[4,5-c]pyridin-5-yl)(5-(1-methyl-1H-pyrazol-4-yl)-1,3,4-oxadiazol-2-yl)methanone] | 1000 to 5000 nM

Results, then the compound that gave them:

Row | AC50 | SMILES
13 | 1000 to 5000 nM | Cc1nnc(N2CCc3[nH]cnc3[C@H]2c2cc3c(Cl)cccn3n2)o1 [Example 2456, (S)-2-(4-(4-chloropyrazolo[1,5-a]pyridin-2-yl)-6,7-dihydro-1H-imidazo[4,5-c]pyridin-5(4H)-yl)-5-methyl-1,3,4-oxadiazole]
14 | > 5000 nM | FC(F)(F)c1ccc(N2CCc3[nH]cnc3[C@@H]2c2cc3ccccn3n2)nc1 [Example 1915, (R)-4-(pyrazolo[1,5-a]pyridin-2-yl)-5-(5-(trifluoromethyl)pyridin-2-yl)-4,5,6,7-tetrahydro-1H-imidazo[4,5-c]pyridine]
15 | < 500 nM | FC(F)c1cccn2nc([C@@H]3c4nc[nH]c4CCN3c3cncc(Cl)n3)cc12 [Example 1829, (S)-5-(6-chloropyrazin-2-yl)-4-(4-(difluoromethyl)pyrazolo[1,5-a]pyridin-2-yl)-4,5,6,7-tetrahydro-1H-imidazo[4,5-c]pyridine]
16 | < 500 nM | CC(C)c1cccn2nc([C@@H]3c4nc[nH]c4CCN3C(=O)c3nnc(-c4cnn(C(F)(F)F)c4)o3)cc12 [Example 1946, (S)-(4-(4-isopropylpyrazolo[1,5-a]pyridin-2-yl)-1,4,6,7-tetrahydro-5H-imidazo[4,5-c]pyridin-5-yl)(5-(1-(trifluoromethyl)-1H-pyrazol-4-yl)-1,3,4-oxadiazol-2-yl)methanone]
17 | < 500 nM | O=C(C1CCC1)N1CCc2[nH]cnc2[C@H]1c1cc2c(F)cccn2n1 [Example 2080, (S)-cyclobutyl(4-(4-fluoropyrazolo[1,5-a]pyridin-2-yl)-1,4,6,7-tetrahydro-5H-imidazo[4,5-c]pyridin-5-yl)methanone]
18 | < 500 nM | Cc1cccn2nc([C@@H]3c4nc[nH]c4CCN3C(=O)c3oc(-c4ccccn4)nc3C3CC3)cc12 [Example 2120, (S)-(4-cyclopropyl-2-(pyridin-2-yl)oxazol-5-yl)(4-(4-methylpyrazolo[1,5-a]pyridin-2-yl)-1,4,6,7-tetrahydro-5H-imidazo[4,5-c]pyridin-5-yl)methanone]

Same assay, conditions: A375 cells expressing human R408W PAH; 24 hrs compound incubation; 13C-Tyrosine by LC-MS; average where tested multiple times; read-out: AC50

Row | SMILES | AC50
19 | Cc1ccc2cc([C@@H]3c4nc[nH]c4CCN3C(=O)c3nnc(-c4ccn(C)n4)o3)nn2c1 [Example 814, (S)-(5-(1-methyl-1H-pyrazol-3-yl)-1,3,4-oxadiazol-2-yl)(4-(6-methylpyrazolo[1,5-a]pyridin-2-yl)-6,7-dihydro-1H-imidazo[4,5-c]pyridin-5(4H)-yl)methanone] | < 500 nM
20 | Cc1cccn2nc([C@H]3c4nc[nH]c4CCN3C(=O)c3nnc(-c4cnn(C(F)F)c4)o3)cc12 [Example 821, (R)-(5-(1-(difluoromethyl)-1H-pyrazol-4-yl)-1,3,4-oxadiazol-2-yl)(4-(4-methylpyrazolo[1,5-a]pyridin-2-yl)-6,7-dihydro-1H-imidazo[4,5-c]pyridin-5(4H)-yl)methanone] | > 5000 nM
21 | O=C(c1nnc(-c2cnn(S(=O)(=O)C3CC3)c2)o1)N1CCc2[nH]cnc2[C@H]1c1cc2c(F)cccn2n1 [Example 834, (S)-(5-(1-(cyclopropylsulfonyl)-1H-pyrazol-4-yl)-1,3,4-oxadiazol-2-yl)(4-(4-fluoropyrazolo[1,5-a]pyridin-2-yl)-6,7-dihydro-1H-imidazo[4,5-c]pyridin-5(4H)-yl)methanone] | 500 to 1000 nM
22 | COc1ccc(-c2nnc(C(=O)N3CCc4[nH]cnc4[C@H]3c3cc4cccc(C)n4n3)o2)nc1 [Example 910, (S)-(5-(5-methoxypyridin-2-yl)-1,3,4-oxadiazol-2-yl)(4-(7-methylpyrazolo[1,5-a]pyridin-2-yl)-6,7-dihydro-1H-imidazo[4,5-c]pyridin-5(4H)-yl)methanone] | 500 to 1000 nM
23 | Cc1cccn2nc([C@@H]3c4nc[nH]c4CCN3C(=O)c3nnc(-c4ccnn4C)o3)cc12 [Example 1016, (S)-(5-(1-methyl-1H-pyrazol-5-yl)-1,3,4-oxadiazol-2-yl)(4-(4-methylpyrazolo[1,5-a]pyridin-2-yl)-6,7-dihydro-1H-imidazo[4,5-c]pyridin-5(4H)-yl)methanone] | < 500 nM
24 | Cc1ccc(-c2nnc(C(=O)N3CCc4[nH]cnc4[C@H]3c3cc4c(C)cccn4n3)o2)nc1 [Example 871, (S)-(4-(4-methylpyrazolo[1,5-a]pyridin-2-yl)-6,7-dihydro-1H-imidazo[4,5-c]pyridin-5(4H)-yl)(5-(5-methylpyridin-2-yl)-1,3,4-oxadiazol-2-yl)methanone] | < 500 nM
25 | Cn1ccc(-c2nnc(C(=O)N3CCc4[nH]cnc4[C@H]3c3cc4cccc(Cl)n4n3)o2)n1 [Example 976, (S)-(4-(7-chloropyrazolo[1,5-a]pyridin-2-yl)-6,7-dihydro-1H-imidazo[4,5-c)pyridin-5(4H)-yl)(5-(1-methyl-1H-pyrazol-3-yl)-1,3,4-oxadiazol-2-yl)methanone] | < 500 nM
26 | Cc1nc(C(C)(C)O)oc1C(=O)N1CCc2[nH]cnc2[C@H]1c1cc2cccc(Cl)n2n1 [Example 1210, (S)-(4-(7-chloropyrazolo[1,5-a]pyridin-2-yl)-6,7-dihydro-1H-imidazo[4,5-c]pyridin-5(4H)-yl)(2-(2-hydroxypropan-2-yl)-4-methyloxazol-5-yl)methanone] | 500 to 1000 nM
27 | CC(C)(O)c1nc(C(F)F)c(C(=O)N2CCc3[nH]cnc3[C@H]2c2cc3c(C(F)(F)F)cccn3n2)o1 [Example 810, (S)-(4-(difluoromethyl)-2-(2-hydroxypropan-2-yl)oxazol-5-yl)(4-(4-(trifluoromethyl)pyrazolo[1,5-a]pyridin-2-yl)-6,7-dihydro-1H-imidazo[4,5-c]pyridin-5(4H)-yl)methanone] | < 500 nM

Next, values leading:

Row | AC50 | SMILES
28 | 1000 to 5000 nM | O=C(c1oc(-c2ccccn2)nc1C1CC1)N1CCc2[nH]cnc2[C@@H]1c1cc2ccccn2n1 [Example 623, (R)-(4-cyclopropyl-2-(pyridin-2-yl)oxazol-5-yl)(4-(pyrazolo[1,5-a]pyridin-2-yl)-6,7-dihydro-1H-imidazo[4,5-c]pyridin-5(4H)-yl)methanone]
29 | 500 to 1000 nM | FC(F)(F)c1cccn2nc([C@@H]3c4nc[nH]c4CCN3c3nnc(-c4ccccn4)o3)cc12 [Example 1610, (S)-2-(pyridin-2-yl)-5-(4-(4-(trifluoromethyl)pyrazolo[1,5-a]pyridin-2-yl)-6,7-dihydro-1H-imidazo[4,5-c]pyridin-5(4H)-yl)-1,3,4-oxadiazole]
30 | 1000 to 5000 nM | O=C(c1nnc(-c2ccn(C(F)(F)F)n2)o1)N1CCc2[nH]cnc2[C@@H]1c1cc2c(C(F)F)cccn2n1 [Example 1481, (R)-(4-(4-(difluoromethyl)pyrazolo[1,5-a]pyridin-2-yl)-6,7-dihydro-1H-imidazo[4,5-c]pyridin-5(4H)-yl)(5-(1-(trifluoromethyl)-1H-pyrazol-3-yl)-1,3,4-oxadiazol-2-yl)methanone]
31 | > 5000 nM | O=C(c1nnc(-c2cnn(C(F)(F)F)c2)o1)N1CCc2[nH]cnc2[C@@H]1c1cc2cccc(C(F)F)n2n1 [Example 1503, (R)-(4-(7-(difluoromethyl)pyrazolo[1,5-a]pyridin-2-yl)-6,7-dihydro-1H-imidazo-[4,5-c]pyridin-5(4H)-yl)(5-(1-(trifluoromethyl)-1H-pyrazol-4-yl)-1,3,4-oxadiazol-2-yl)methanone]
32 | 500 to 1000 nM | Cn1cncc1-c1nc(C(F)F)c(C(=O)N2CCc3[nH]cnc3[C@H]2c2cc3ccccn3n2)o1 [Example 869, (S)-(4-(difluoromethyl)-2-(1-methyl-1H-imidazol-5-yl)oxazol-5-yl)(4-(pyrazolo[1,5-a]pyridin-2-yl)-6,7-dihydro-1H-imidazo[4,5-c]pyridin-5(4H)-yl)methanone]

From patent US20230365592A1 (Agios Pharmaceuticals, Inc., priority 2022, published 2023)
